Test [1] addresses T1, human NK1R (Homo sapiens, UniProt P25103).
T1 construct: expressed in transfected cells
As to the kind of experiment: Binding assay of human NK1R expressed in COS or CHO cells, displacement of 125I-substance P (Table 1, hNK1). As for the experimental part:
(§1) A. Receptor Expression in COS
(§2) To express the cloned human neurokinin-1 receptor (NK 1R) transiently in COS, the cDNA for the human NK 1R was cloned into the expression vector pCDM9 which was derived from pCDM 8 (INVITROGEN) by inserting the ampicillin resistance gene (nucleotide 1973 to 2964 from BLUESCRIPT SK+) into the Sac II site. Transfection of 20 μg of the plasmid DNA into 10 million COS cells was achieved by electroporation in 800 μl of transfection buffer (135 mM NaCl, 1.2 mM CaCl2, 1.2 mM MgCl2, 2.4 mM K2 HPO4, 0.6 mM KH2 PO4, 10 mM glucose, 10 mM HEPES pH 7.4) at 260 V and 950 uF using the IBI GENEZAPPER (IBI, New Haven, Conn.). The cells were incubated in 10% fetal calf serum, 2 mM glutamine, 100 U/ml penicillin-streptomycin, and 90% DMEM media (GIBCO, Grand Island, N.Y.) in 5% CO2 at 37° C. for three days before the binding assay. Similar methods were used to express the NK2 receptor.
(§3) B. Stable Expression in CHO
(§4) To establish a stable cell line expressing the cloned human NK1R, the cDNA was subcloned into the vector pRcCMV (INVITROGEN). Transfection of 20 μg of the plasmid DNA into CHO cells was achieved by electroporation in 800 μl of transfection buffer suplemented with 0.625 mg/ml Herring sperm DNA at 300 V and 950 uF using the IBI GENEZAPPER (IBI). The transfected cells were incubated in CHO media (10% fetal calf serum, 100 U/ml pennicilin-streptomycin, 2 mM glutamine, 1/500 hypoxanthine-thymidine(ATCC), 90% IMDM media (JRH BIOSCIENCES, Lenexa, Kans.), 0.7 mg/ml G418 (GIBCO)) in 5% CO2 at 37° C. until colonies were visible. Each colony was separated and propagated. The cell clone with the highest number of human NK1R was selected for subsequent applications such as drug screening. Similar methods were used to express the human NK2 receptor.
(§5) C. Assay Protocol using COS or CHO The binding assay of human NK1R expressed in either COS or CHO cells is based on the use of ^125 I-substance P (^125 I-SP, from DU PONT, Boston, Mass.) as a radioactively labeled ligand which competes with unlabeled substance P or any other ligand for binding to the human NK1R. […] In the binding assay, 500 μl of cells were added to a tube containing 20 μl of 1.5 to 0.25 nM of ^125 I-SP and 5 μl of unlabeled substance P or any other test compound in DMSO. The tubes were incubated at 4° C. or at room temperature for 1 hour with gentle shaking. The bound radioactivity was separated from unbound radioactivity by GF/C filter (BRANDEL, Gaithersburg, Md.) which was pre-wetted with 0.1% polyethylenimine. The filter was washed with 3 ml of wash buffer (50 mM Tris pH 7.5, 5 mM MnCl2, 150 mM NaCl) three times and its radioactivity was determined by gamma counter. A similar assay was used for NK2 except ^125 I-NKA was used as the ligand.

Test [2] addresses T2, human NK2 receptor (Homo sapiens, UniProt P21452).
T2 construct: expressed in transfected cells
T2 sequence (P21452 1-398): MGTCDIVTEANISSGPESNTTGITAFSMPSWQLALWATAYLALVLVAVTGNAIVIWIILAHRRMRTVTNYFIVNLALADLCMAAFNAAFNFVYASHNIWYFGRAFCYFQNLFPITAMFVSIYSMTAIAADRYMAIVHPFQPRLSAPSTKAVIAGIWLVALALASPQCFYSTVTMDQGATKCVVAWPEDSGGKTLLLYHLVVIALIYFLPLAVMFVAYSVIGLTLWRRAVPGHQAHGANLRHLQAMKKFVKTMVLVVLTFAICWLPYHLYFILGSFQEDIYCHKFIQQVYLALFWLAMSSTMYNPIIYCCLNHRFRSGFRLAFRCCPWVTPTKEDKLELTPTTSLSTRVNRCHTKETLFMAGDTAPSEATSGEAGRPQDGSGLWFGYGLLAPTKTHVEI
As to the kind of experiment: Binding assay of NK2 receptor expressed in COS or CHO cells, displacement of 125I-NKA (Table 1, hNK2). As for the experimental part:
as §1, §2, §3, §4, §5
A general note: Displacement assays read how much labelled ligand stays bound in the presence of the test substance.

[3] abbreviates: human NK1 receptor, 125I-substance P ligand, read-out: hNK1 (IC50 nM).
[4] abbreviates: human NK2 receptor, 125I-NKA ligand, read-out: hNK2 (IC50 nM).

Read-outs that look alike come from different tables or passages of the source.

Our source for the IC50 values is patent US5869489A, “Trypthophan ureas as neurokinnin antagonists” (Merck & Co., Inc., priority 1997, dated 1999).

T1 sequence (P25103 whole entry): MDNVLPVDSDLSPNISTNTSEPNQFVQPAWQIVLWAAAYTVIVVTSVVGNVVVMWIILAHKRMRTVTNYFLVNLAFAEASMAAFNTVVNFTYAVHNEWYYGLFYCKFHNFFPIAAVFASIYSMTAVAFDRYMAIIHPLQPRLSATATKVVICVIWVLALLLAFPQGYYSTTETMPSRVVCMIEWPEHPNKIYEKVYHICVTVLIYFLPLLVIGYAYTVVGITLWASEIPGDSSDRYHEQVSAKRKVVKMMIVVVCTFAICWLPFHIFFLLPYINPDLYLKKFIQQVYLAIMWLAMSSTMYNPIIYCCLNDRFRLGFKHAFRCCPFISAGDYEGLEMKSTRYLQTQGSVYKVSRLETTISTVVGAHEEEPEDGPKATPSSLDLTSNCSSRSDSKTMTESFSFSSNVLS

As usually defined, the IC50 is the midpoint of a concentration-inhibition curve. `CN(Cc1ccccc1)C(=O)[C@H](Cc1c[nH]c2ccccc12)NC(=O)N1CCC2(CCc3ccccc32)CC1` [Example 4, N-Benzyl-N-methyl-2-(S)-((spiroindane-1,4'-piperidino)-carbonyl-amino)-3-(3-indolyl)propionamide]: the IC50 was 50 nM in test [1] (setting [3]) and 8 nM in test [2] (setting [4]).

As for `C[C@H](NC(=O)[C@H](Cc1c[nH]c2ccccc12)NC(=O)N1CCC2(CCc3ccccc32)CC1)c1ccccc1` [Example 21, N-(1(S)-Phenylethyl)-2(S)-((spiroindane-1,4'-piperidino)-carbonyl-amino)-3-(3-indolyl)propionamide], the IC50 in test [1] (setting [3]) was 80 nM; in test [2] (setting [4]), 16 nM.

Take `CN(Cc1ccccc1)C(=O)[C@H](COCc1ccccc1)NC(=O)N1CCC2(CC1)CN(S(C)(=O)=O)c1ccccc12` [Example 35, N-Benzyl-N-methyl-2-(S)-((1-methanesulfonyl-spiroindoline-1,4'-piperidino)-carbonyl-amino)-3-benzyloxypropionamide]: the results for the IC50 in test [1] (setting [3]) and in test [2] (setting [4]) were 300 nM and 60 nM, respectively.

With `CN(Cc1ccccc1)C(=O)[C@H](Cc1ccccc1)NC(=O)N1CCC2(C=Cc3ccccc32)CC1` [Example 36, N-Benzyl-N-methyl-2-(S)-((spiroindine-1,4'-piperidino)-carbonyl-amino)-3-phenylpropionamide], the IC50 in test [1] (setting [3]) was 300 nM; in test [2] (setting [4]), 200 nM.

Turning to `CN(Cc1ccccc1)C(=O)[C@H](Cc1c[nH]c2ccccc12)NC(=O)N1CCC(c2ccccc2)CC1` [Example 7], the figures for the IC50 in test [1] (setting [3]) and in test [2] (setting [4]) were 60 nM and 50 nM, respectively.

With “N-(1(R)-Phenylpropyl)-N-methyl-2(S)-((spiroindane-1,4'-piperidino)-carbonyl-amino)-3-(3-indolyl)propionamide [Example 24]”, the IC50 was determined as 1000 nM in test [1] (setting [3]) and 50 nM in test [2] (setting [4]).

Turning to `CN(Cc1ccccc1)C(=O)[C@@H](NC(=O)N1CCC2(C=Cc3ccccc32)CC1)c1ccccc1` [Example 37, N-Benzyl-N-methyl-2-(S)-((spiroindine-1,4'-piperidino)-carbonyl-amino)-2-phenylacetamide], the IC50 in test [1] (setting [3]) was 575 nM; in test [2] (setting [4]), 200 nM.

Regarding `CN(Cc1ccccc1)C(=O)[C@H](Cc1c[nH]c2ccccc12)NC(=O)N1CCC(Cc2ccccc2)CC1` [Example 8, N-Benzyl-N-methyl-2-(S)-((4-benzylpiperidino)-carbonyl-amino)-3-(3-indolyl)propionamide], the IC50 in test [1] (setting [3]) is 90 nM; in test [2] (setting [4]), 25 nM.

Take `CN(Cc1ccccc1)C(=O)[C@H](CCc1ccccc1)NC(=O)N1CCC2(CC1)CN(S(C)(=O)=O)c1ccccc12` [Example 34, N-Benzyl-N-methyl-2-(S)-((1-methanesulfonyl-spiroindoline-3,4'-piperidino)-carbonyl-amino)-4-phenylbutyramide]: the figures for the IC50 in test [1] (setting [3]) and in test [2] (setting [4]) were 400 nM and 60 nM, respectively.

For the compound `CN(Cc1ccccc1)C(=O)[C@@H](Cc1c[nH]c2ccccc12)NC(=O)N1CCC2(C=Cc3ccccc32)CC1` [Example 31, N-Benzyl-N-methyl-2-(R)-((spiro-1H-indene-1,4'-piperidino)-carbonyl-amino)-3-(3-indolyl)propionamide], the IC50 in test [1] (setting [3]) amounted to 600 nM; in test [2] (setting [4]), 130 nM.

As for `CN(Cc1ccccc1)C(=O)[C@H](Cc1c[nH]c2ccccc12)NC(=O)N1CCC(N2C(=O)NCc3ccccc32)CC1` [Example 11], the IC50 in test [1] is 100 nM; in test [2], 60 nM.

Regarding “N-(1(S)-Phenylpropyl)-N-methyl-2(S)-((spiroindane-1,4'-piperidino)-carbonyl-amino)-3-(3-indolyl)propionamide [Example 23]”, the results for the IC50 in test [1] (setting [3]) and in test [2] (setting [4]) were 650 nM and 30 nM, respectively.

As for `Cc1cc(C)cc(CN(C)C(=O)[C@H](Cc2c[nH]c3ccccc23)NC(=O)N2CCC3(CC2)CN(S(C)(=O)=O)c2ccccc23)c1` [Example 28, N-(3,5-Dimethylphenyl)methyl-N-methyl-2-(S)-((1-methanesulfonyl-spiroindoline-3,4'-piperidino)-carbonyl-amino)-3-(3-indolyl)propionamide], the IC50 in test [1] (setting [3]) was 3 nM; in test [2] (setting [4]), more than 300 nM.

Consider `C[C@@H](NC(=O)[C@H](Cc1c[nH]c2ccccc12)NC(=O)N1CCC2(CCc3ccccc32)CC1)c1ccccc1` [Example 22, N-(1(R)-Phenylethyl)-2(S)-((spiroindane-1,4'-piperidino)-carbonyl-amino)-3-(3-indolyl)propionamide], for which the IC50 is 1000 nM in test [1] (setting [3]) and 28 nM in test [2] (setting [4]).

As to “N-(1(S)-phenyl)ethyl-N-methyl-2-(S)-((1-methanesulfonyl-spiroindoline-3,4'- piperidino)-carbonyl-amino)-3-(3-indolyl)propionamide [Example 30]”, the IC50 was 10 nM in test [1] (setting [3]) and 70 nM in test [2] (setting [4]).

For the compound `Cc1cccc(CN(C)C(=O)[C@H](Cc2c[nH]c3ccccc23)NC(=O)N2CCC3(CC2)CN(S(C)(=O)=O)c2ccccc23)c1` [Example 25, N-(3-Methylphenyl)methyl-N-methyl-2-(S)-((1-methanesulfonyl-spiroindoline-3,4'-piperidino)-carbonyl-amino)-3-(3-indolyl)propionamide], the IC50 in test [1] (setting [3]) was found to be 8 nM; in test [2] (setting [4]), 85 nM.

Turning to `CC(=O)N1CC2(CCN(C(=O)N[C@@H](Cc3c[nH]c4ccccc34)C(=O)N(C)Cc3ccccc3)CC2)c2ccccc21` [Example 6, N-Benzyl-N-methyl-2-(S)-((1-acetylspiroindoline-3,4'-piperidino)-carbonyl-amino)-3-(3-indolyl)propionamide], the IC50 amounted to 15 nM in test [1] (setting [3]) and 30 nM in test [2] (setting [4]).

Take `Cc1ccccc1CNC(=O)[C@H](Cc1c[nH]c2ccccc12)NC(=O)N1CCC2(CCc3ccccc32)CC1` [Example 16, N-(2-Methylbenzyl)-2-(S)-((spiroindane-1,4'-piperidino)-carbonyl-amino)-3-(3-indolyl)propionamide]: the IC50 was 100 nM in test [1] (setting [3]) and 15 nM in test [2] (setting [4]).

Consider `O=C(NCc1ccccc1)[C@H](Cc1c[nH]c2ccccc12)NC(=O)N1CCC2(CCc3ccccc32)CC1` [Example 15, N-Benzyl-2-(S)-((spiroindane-1,4'-piperidino)-carbonyl-amino)-3-(3-indolyl)propionamide], for which the values for the IC50 in test [1] (setting [3]) and in test [2] (setting [4]) were 100 nM and 35 nM, respectively.

In the case of `O=C(NCCc1ccccc1)[C@H](Cc1c[nH]c2ccccc12)NC(=O)N1CCC2(CCc3ccccc32)CC1` [Example 19], the half-maximal inhibitory concentration (IC50) in test [1] (setting [3]) was determined as 200 nM; in test [2] (setting [4]), 56 nM.

As to `Cc1cc(Cl)cc(CN(C)C(=O)[C@H](Cc2c[nH]c3ccccc23)NC(=O)N2CCC3(CC2)CN(S(C)(=O)=O)c2ccccc23)c1` [Example 29, N-((3-Chloro-5-methyl)phenyl)methyl-N-methyl-2-(S)-((1-methanesulfonyl-Spiroindoline-3,4'-piperidino)-carbonyl-amino)-3-(3-indolyl)propionamide], the IC50 in test [1] (setting [3]) worked out at 2 nM; in test [2] (setting [4]) it was 500 nM.

As to `CN(Cc1ccccc1)C(=O)[C@H](Cc1c[nH]c2ccccc12)NC(=O)N1CCC2(CC1)CN(S(C)(=O)=O)c1ccccc12` [Example 5, N-Benzyl-N-methyl-2-(S)-((1-methanesulfonyl-spiroindoline-3,4'-piperidino)-carbonyl-amino)-3-(3-indolyl)propionamide], the values for the IC50 in test [1] (setting [3]) and in test [2] (setting [4]) were 20 nM and 12 nM, respectively.
